Results reported in ChEMBL document CHEMBL3885881, “DrugMatrix”.

Species: Rattus norvegicus
Test: DrugMatrix - Regimen: Daily Repeat
Type: toxicity, organism-based, Sprague-Dawley
Set-up: regimen Daily Repeat, gender Male, age 6-8 weeks
Settings: in vivo, iv, vehicle 100 % SALINE; for ABSOLUTE BASOPHIL / ABSOLUTE EOSINOPHIL / ABSOLUTE LYMPHOCYTE / ABSOLUTE MONOCYTE / ABSOLUTE SEGMENTED NEUTROPHIL / BASOPHIL / EOSINOPHIL / ERYTHROCYTE COUNT / HEMATOCRIT / HEMOGLOBIN / LEUKOCYTE COUNT / LYMPHOCYTE / MEAN CORPUSCULAR HEMOGLOBIN / MEAN CORPUSCULAR HEMOGLOBIN CONCENTRATION / MEAN CORPUSCULAR VOLUME / MONOCYTE / NEUTROPHIL / NUCLEATED RED BLOOD CELLS / PLATELET COUNT: tissue Blood; for ALANINE AMINOTRANSFERASE / ALBUMIN / ALKALINE PHOSPHATASE / ASPARTATE AMINOTRANSFERASE / BLOOD UREA NITROGEN / CARBON DIOXIDE / CHLORIDE / CHOLESTEROL / CREATINE PHOSPHOKINASE / CREATININE / GLUCOSE / LACTATE DEHYDROGENASE / LIPASE / PHOSPHORUS / POTASSIUM / SODIUM / TOTAL BILIRUBIN / TOTAL PROTEIN / URIC ACID: tissue Plasma
[1] = 27 mg/kg, 72 h, dose level High, time 3 day
[2] = 27 mg/kg, 120 h, dose level High, time 5 day
[3] = […], 72 h, dose 2.7 mg/Kg, dose level Low, time 3 day
[4] = […], 120 h, dose 2.7 mg/Kg, dose level Low, time 5 day

COC(=O)CCc1ccc(OCC(O)CNC(C)C)cc1 (configuration not stated) [ESMOLOL]
ABSOLUTE BASOPHIL [1]: 0 CELLS/uL | ABSOLUTE EOSINOPHIL [1]: 31.33 CELLS/uL | ABSOLUTE LYMPHOCYTE [1]: 10926.67 CELLS/uL | ABSOLUTE MONOCYTE [1]: 68.67 CELLS/uL | ABSOLUTE SEGMENTED NEUTROPHIL [1]: 673.33 CELLS/uL | BASOPHIL [1]: 0% | EOSINOPHIL [1]: 0.33% | ERYTHROCYTE COUNT [1]: 5.92 x10E6/uL | HEMATOCRIT [1]: 37.53% | HEMOGLOBIN [1]: 14.47 G/DL | LEUKOCYTE COUNT [1]: 11.7 x10E3/uL | LYMPHOCYTE [1]: 92.67% | MEAN CORPUSCULAR HEMOGLOBIN [1]: 24.37 pg | MEAN CORPUSCULAR HEMOGLOBIN CONCENTRATION [1]: 38.63 G/DL | MEAN CORPUSCULAR VOLUME [1]: 63.03 fL | MONOCYTE [1]: 0.67% | NEUTROPHIL [1]: 6.33% | NUCLEATED RED BLOOD CELLS [1]: 0 /100WBC | PLATELET COUNT [1]: 1320 x10E3/uL | ALANINE AMINOTRANSFERASE [1]: 71.33 u/L | ALBUMIN [1]: 4.1 G/DL | ALKALINE PHOSPHATASE [1]: 456.33 u/L | ASPARTATE AMINOTRANSFERASE [1]: 161 u/L | BLOOD UREA NITROGEN [1]: 16.67 mg/dL | CARBON DIOXIDE [1]: 28.67 mmol/L | CHLORIDE [1]: 100.33 MEQ/L | CHOLESTEROL [1]: 75.67 mg/dL | CREATINE PHOSPHOKINASE [1]: 1751 u/L | CREATININE [1]: 0.23 mg/dL | GLUCOSE [1]: 225 mg/dL | LACTATE DEHYDROGENASE [1]: 862 u/L | LIPASE [1]: 12.33 u/L | PHOSPHORUS [1]: 14.17 mg/dL | POTASSIUM [1]: 8.56 MEQ/L | SODIUM [1]: 142.57 MEQ/L | TOTAL BILIRUBIN [1]: 0.4 mg/dL | TOTAL PROTEIN [1]: 5.8 G/DL | URIC ACID [1]: 4.13 mg/dL | ABSOLUTE BASOPHIL [2]: 0 CELLS/uL | ABSOLUTE EOSINOPHIL [2]: 0 CELLS/uL | ABSOLUTE LYMPHOCYTE [2]: 16580.67 CELLS/uL | ABSOLUTE MONOCYTE [2]: 300 CELLS/uL | ABSOLUTE SEGMENTED NEUTROPHIL [2]: 1652.67 CELLS/uL | BASOPHIL [2]: 0% | EOSINOPHIL [2]: 0% | ERYTHROCYTE COUNT [2]: 5.69 x10E6/uL | HEMATOCRIT [2]: 36.33% | HEMOGLOBIN [2]: 14.23 G/DL | LEUKOCYTE COUNT [2]: 18.53 x10E3/uL | LYMPHOCYTE [2]: 89.33% | MEAN CORPUSCULAR HEMOGLOBIN [2]: 25 pg | MEAN CORPUSCULAR HEMOGLOBIN CONCENTRATION [2]: 39.2 G/DL | MEAN CORPUSCULAR VOLUME [2]: 63.8 fL | MONOCYTE [2]: 1.67% | NEUTROPHIL [2]: 9% | NUCLEATED RED BLOOD CELLS [2]: 0 /100WBC | PLATELET COUNT [2]: 1133.67 x10E3/uL | ALANINE AMINOTRANSFERASE [2]: 63.33 u/L | ALBUMIN [2]: 4.27 G/DL | ALKALINE PHOSPHATASE [2]: 363.67 u/L | ASPARTATE AMINOTRANSFERASE [2]: 126 u/L | BLOOD UREA NITROGEN [2]: 15.33 mg/dL | CARBON DIOXIDE [2]: 27.33 mmol/L | CHLORIDE [2]: 99.67 MEQ/L | CHOLESTEROL [2]: 70.33 mg/dL | CREATINE PHOSPHOKINASE [2]: 284 u/L | CREATININE [2]: 0.22 mg/dL | GLUCOSE [2]: 147.33 mg/dL | LACTATE DEHYDROGENASE [2]: 238.67 u/L | LIPASE [2]: 9.33 u/L | PHOSPHORUS [2]: 11 mg/dL | POTASSIUM [2]: 6.94 MEQ/L | SODIUM [2]: 142.83 MEQ/L | TOTAL BILIRUBIN [2]: 0.17 mg/dL | TOTAL PROTEIN [2]: 6.3 G/DL | URIC ACID [2]: 1.47 mg/dL | ABSOLUTE BASOPHIL [3]: 0 CELLS/uL | ABSOLUTE EOSINOPHIL [3]: 0 CELLS/uL | ABSOLUTE LYMPHOCYTE [3]: 13243.33 CELLS/uL | ABSOLUTE MONOCYTE [3]: 97.67 CELLS/uL | ABSOLUTE SEGMENTED NEUTROPHIL [3]: 1325.67 CELLS/uL | BASOPHIL [3]: 0% | EOSINOPHIL [3]: 0% | ERYTHROCYTE COUNT [3]: 5.56 x10E6/uL | HEMATOCRIT [3]: 35.9% | HEMOGLOBIN [3]: 14.23 G/DL | LEUKOCYTE COUNT [3]: 14.67 x10E3/uL | LYMPHOCYTE [3]: 90.33% | MEAN CORPUSCULAR HEMOGLOBIN [3]: 25.77 pg | MEAN CORPUSCULAR HEMOGLOBIN CONCENTRATION [3]: 39.73 G/DL | MEAN CORPUSCULAR VOLUME [3]: 64.73 fL | MONOCYTE [3]: 0.67% | NEUTROPHIL [3]: 9% | NUCLEATED RED BLOOD CELLS [3]: 0 /100WBC | PLATELET COUNT [3]: 1093.67 x10E3/uL | ALANINE AMINOTRANSFERASE [3]: 50 u/L | ALBUMIN [3]: 4.43 G/DL | ALKALINE PHOSPHATASE [3]: 440 u/L | ASPARTATE AMINOTRANSFERASE [3]: 82 u/L | BLOOD UREA NITROGEN [3]: 17.33 mg/dL | CARBON DIOXIDE [3]: 28.67 mmol/L | CHLORIDE [3]: 100.33 MEQ/L | CHOLESTEROL [3]: 69.33 mg/dL | CREATINE PHOSPHOKINASE [3]: 423.67 u/L | CREATININE [3]: 0.22 mg/dL | GLUCOSE [3]: 193 mg/dL | LACTATE DEHYDROGENASE [3]: 155 u/L | LIPASE [3]: 9 u/L | PHOSPHORUS [3]: 12.67 mg/dL | POTASSIUM [3]: 7.24 MEQ/L | SODIUM [3]: 143.23 MEQ/L | TOTAL BILIRUBIN [3]: 0.23 mg/dL | TOTAL PROTEIN [3]: 5.97 G/DL | URIC ACID [3]: 2.6 mg/dL | ABSOLUTE BASOPHIL [4]: 0 CELLS/uL | ABSOLUTE EOSINOPHIL [4]: 0 CELLS/uL | ABSOLUTE LYMPHOCYTE [4]: 9825 CELLS/uL | ABSOLUTE MONOCYTE [4]: 143 CELLS/uL | ABSOLUTE SEGMENTED NEUTROPHIL [4]: 698.67 CELLS/uL | BASOPHIL [4]: 0% | EOSINOPHIL [4]: 0% | ERYTHROCYTE COUNT [4]: 6.36 x10E6/uL | HEMATOCRIT [4]: 40.2% | HEMOGLOBIN [4]: 15.63 G/DL | LEUKOCYTE COUNT [4]: 10.67 x10E3/uL | LYMPHOCYTE [4]: 92% | MEAN CORPUSCULAR HEMOGLOBIN [4]: 24.57 pg | MEAN CORPUSCULAR HEMOGLOBIN CONCENTRATION [4]: 38.87 G/DL | MEAN CORPUSCULAR VOLUME [4]: 63.2 fL | MONOCYTE [4]: 1.33% | NEUTROPHIL [4]: 6.67% | NUCLEATED RED BLOOD CELLS [4]: 0.33 /100WBC | PLATELET COUNT [4]: 1330 x10E3/uL | ALANINE AMINOTRANSFERASE [4]: 35.67 u/L | ALBUMIN [4]: 4.67 G/DL | ALKALINE PHOSPHATASE [4]: 337 u/L | ASPARTATE AMINOTRANSFERASE [4]: 68.67 u/L | BLOOD UREA NITROGEN [4]: 21.67 mg/dL | CARBON DIOXIDE [4]: 29.67 mmol/L | CHLORIDE [4]: 103 MEQ/L | CHOLESTEROL [4]: 101 mg/dL | CREATINE PHOSPHOKINASE [4]: 276 u/L | CREATININE [4]: 0.21 mg/dL | GLUCOSE [4]: 155 mg/dL | LACTATE DEHYDROGENASE [4]: 214.33 u/L | LIPASE [4]: 10 u/L | PHOSPHORUS [4]: 12.37 mg/dL | POTASSIUM [4]: 6.64 MEQ/L | SODIUM [4]: 148.6 MEQ/L | TOTAL BILIRUBIN [4]: 0.23 mg/dL | TOTAL PROTEIN [4]: 6.97 G/DL | URIC ACID [4]: 2 mg/dL
